From ChEMBL document CHEMBL4043199, “Synthesis and optimization of 4,5,6,7-tetrahydrooxazolo[4,5-c]pyridines as potent and orally-active metabotropic glutamate receptor 5 negative allosteric modulators” (Bioorg Med Chem Lett, 2017)
≈ marks a conversion by molar mass, not a printed value.

Key:
[1] = molecular target: Metabotropic glutamate receptor 5 (Homo sapiens, UniProt P41594); test: Negative allosteric modulation of human recombinant mGluR5 expressed in HEK293 cells assessed as inhibition of glutamate-induced calcium mobilization preincubated for 2 mins followed glutamate addition measured by fluorescence assay; format: functional, cell-based
Sequence of Metabotropic glutamate receptor 5 (P41594 whole entry): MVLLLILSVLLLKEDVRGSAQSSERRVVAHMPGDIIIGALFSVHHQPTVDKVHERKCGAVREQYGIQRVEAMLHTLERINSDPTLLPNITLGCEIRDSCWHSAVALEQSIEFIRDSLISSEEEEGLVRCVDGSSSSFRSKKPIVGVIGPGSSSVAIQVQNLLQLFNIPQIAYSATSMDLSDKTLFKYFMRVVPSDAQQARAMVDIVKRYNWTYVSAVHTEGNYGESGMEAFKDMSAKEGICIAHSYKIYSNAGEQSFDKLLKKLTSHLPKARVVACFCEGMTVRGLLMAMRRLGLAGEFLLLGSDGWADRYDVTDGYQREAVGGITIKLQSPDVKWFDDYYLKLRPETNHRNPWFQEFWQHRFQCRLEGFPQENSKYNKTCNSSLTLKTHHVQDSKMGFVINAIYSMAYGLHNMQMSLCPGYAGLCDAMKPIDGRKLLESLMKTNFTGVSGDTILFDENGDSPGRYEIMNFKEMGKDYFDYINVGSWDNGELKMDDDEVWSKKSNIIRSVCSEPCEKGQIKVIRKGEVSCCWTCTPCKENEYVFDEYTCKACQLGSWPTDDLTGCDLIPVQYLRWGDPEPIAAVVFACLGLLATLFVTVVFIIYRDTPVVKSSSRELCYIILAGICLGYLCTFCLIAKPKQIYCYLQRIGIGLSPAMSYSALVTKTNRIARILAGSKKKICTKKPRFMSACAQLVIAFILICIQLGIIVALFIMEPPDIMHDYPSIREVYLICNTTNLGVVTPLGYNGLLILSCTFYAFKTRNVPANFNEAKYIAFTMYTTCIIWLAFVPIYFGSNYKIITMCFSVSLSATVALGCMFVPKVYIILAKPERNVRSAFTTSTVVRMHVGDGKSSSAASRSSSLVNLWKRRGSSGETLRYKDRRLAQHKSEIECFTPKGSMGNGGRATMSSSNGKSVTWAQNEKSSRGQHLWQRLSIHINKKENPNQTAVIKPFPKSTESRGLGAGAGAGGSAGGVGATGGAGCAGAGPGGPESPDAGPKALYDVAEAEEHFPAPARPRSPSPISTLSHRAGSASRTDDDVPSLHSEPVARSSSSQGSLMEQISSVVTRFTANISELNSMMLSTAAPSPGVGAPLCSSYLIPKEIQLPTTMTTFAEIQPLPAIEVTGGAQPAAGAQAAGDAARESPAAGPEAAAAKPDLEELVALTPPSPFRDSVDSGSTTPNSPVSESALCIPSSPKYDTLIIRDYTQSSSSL

[2] = Metabolic stability in human hepatic microsomes assessed as parent compound remaining at 1 uM after 30 mins in presence of NADPH by LC-MS/MS analysis relative to control; format: ADME, Microsome; conditions: liver microsomes, read-out: Stability
[3] = Metabolic stability in rat hepatic microsomes assessed as parent compound remaining at 1 uM after 30 mins in presence of NADPH by LC-MS/MS analysis relative to control; format: ADME, Microsome; conditions: liver microsomes, read-out: Stability
CYP1A2 = molecular target: T1, CYP1A2 (Homo sapiens, UniProt P05177); test: Inhibition of CYP1A2 in human liver microsomes using phenacetin as substrate after 10 mins by LC-MS/MS analysis; format: ADME; conditions: human, liver microsomes, probe phenacetin
T1 sequence (P05177 whole entry): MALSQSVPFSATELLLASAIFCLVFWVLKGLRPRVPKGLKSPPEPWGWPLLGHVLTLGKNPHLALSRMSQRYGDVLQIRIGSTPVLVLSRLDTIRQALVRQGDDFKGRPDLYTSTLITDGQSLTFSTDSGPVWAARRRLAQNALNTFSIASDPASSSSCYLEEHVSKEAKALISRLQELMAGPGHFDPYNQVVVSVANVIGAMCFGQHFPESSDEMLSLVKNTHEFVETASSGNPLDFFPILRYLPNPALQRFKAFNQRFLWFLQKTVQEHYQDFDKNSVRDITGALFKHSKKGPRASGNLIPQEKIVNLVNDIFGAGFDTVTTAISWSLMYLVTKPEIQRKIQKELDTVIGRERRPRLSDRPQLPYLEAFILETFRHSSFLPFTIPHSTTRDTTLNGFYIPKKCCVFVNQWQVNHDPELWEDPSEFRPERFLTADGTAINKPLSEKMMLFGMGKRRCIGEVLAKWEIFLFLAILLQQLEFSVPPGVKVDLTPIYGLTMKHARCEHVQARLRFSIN

[4] = […] of CYP450 in human liver microsomes as substrate after 10 mins by LC-MS/MS analysis; format: ADME
CYP2D6 = CYP2D6 (Homo sapiens, UniProt P10635); test: Inhibition of CYP2D6 in human liver microsomes using bufuralol as substrate after 10 mins by LC-MS/MS analysis; format: ADME; conditions: human, liver microsomes, probe bufuralol
Sequence of CYP2D6 (P10635 whole entry): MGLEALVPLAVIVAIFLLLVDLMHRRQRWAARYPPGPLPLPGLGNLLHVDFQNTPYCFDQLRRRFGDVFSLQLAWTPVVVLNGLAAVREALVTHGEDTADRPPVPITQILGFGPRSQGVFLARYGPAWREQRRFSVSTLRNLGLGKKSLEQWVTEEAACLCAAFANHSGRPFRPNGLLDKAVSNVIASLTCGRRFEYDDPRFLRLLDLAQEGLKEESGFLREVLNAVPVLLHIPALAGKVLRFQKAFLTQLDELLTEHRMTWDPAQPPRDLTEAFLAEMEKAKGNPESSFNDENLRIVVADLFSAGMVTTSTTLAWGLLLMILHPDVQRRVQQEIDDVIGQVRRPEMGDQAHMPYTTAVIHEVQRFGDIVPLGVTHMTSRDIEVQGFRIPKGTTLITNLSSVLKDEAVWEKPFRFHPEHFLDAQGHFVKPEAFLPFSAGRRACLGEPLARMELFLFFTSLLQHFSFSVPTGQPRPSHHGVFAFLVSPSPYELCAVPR

P-gp = test: Substrate activity at P-gp (unknown origin) assessed as efflux ratio; format: ADME; conditions: human, not told
CYP2C8 = molecular target: T2, CYP2C8 (Homo sapiens, UniProt P10632); test: Inhibition of CYP2C8 in human liver microsomes using amodiaquine as substrate after 10 mins by LC-MS/MS analysis; format: ADME; conditions: human, liver microsomes, probe amodiaquine
T2 sequence (P10632 whole entry): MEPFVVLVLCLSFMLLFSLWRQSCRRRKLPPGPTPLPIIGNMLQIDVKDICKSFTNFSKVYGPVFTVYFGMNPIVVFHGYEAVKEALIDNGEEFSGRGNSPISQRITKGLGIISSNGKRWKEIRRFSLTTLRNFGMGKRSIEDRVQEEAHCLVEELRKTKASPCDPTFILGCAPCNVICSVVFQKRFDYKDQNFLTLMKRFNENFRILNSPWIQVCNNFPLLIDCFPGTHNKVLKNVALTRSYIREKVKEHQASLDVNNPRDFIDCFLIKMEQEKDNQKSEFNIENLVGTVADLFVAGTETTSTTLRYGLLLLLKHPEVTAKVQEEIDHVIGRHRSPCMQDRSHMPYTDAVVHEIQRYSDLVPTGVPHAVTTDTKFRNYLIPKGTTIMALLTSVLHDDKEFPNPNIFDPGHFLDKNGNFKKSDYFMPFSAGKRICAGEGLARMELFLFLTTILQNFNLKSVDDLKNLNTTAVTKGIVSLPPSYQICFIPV

CYP2A6 = molecular target: T3, CYP2A6 (Homo sapiens, UniProt P11509); test: Inhibition of CYP2A6 in human liver microsomes using coumarin as substrate after 10 mins by LC-MS/MS analysis; format: ADME; conditions: human, liver microsomes, probe coumarin
T3 sequence (P11509 whole entry): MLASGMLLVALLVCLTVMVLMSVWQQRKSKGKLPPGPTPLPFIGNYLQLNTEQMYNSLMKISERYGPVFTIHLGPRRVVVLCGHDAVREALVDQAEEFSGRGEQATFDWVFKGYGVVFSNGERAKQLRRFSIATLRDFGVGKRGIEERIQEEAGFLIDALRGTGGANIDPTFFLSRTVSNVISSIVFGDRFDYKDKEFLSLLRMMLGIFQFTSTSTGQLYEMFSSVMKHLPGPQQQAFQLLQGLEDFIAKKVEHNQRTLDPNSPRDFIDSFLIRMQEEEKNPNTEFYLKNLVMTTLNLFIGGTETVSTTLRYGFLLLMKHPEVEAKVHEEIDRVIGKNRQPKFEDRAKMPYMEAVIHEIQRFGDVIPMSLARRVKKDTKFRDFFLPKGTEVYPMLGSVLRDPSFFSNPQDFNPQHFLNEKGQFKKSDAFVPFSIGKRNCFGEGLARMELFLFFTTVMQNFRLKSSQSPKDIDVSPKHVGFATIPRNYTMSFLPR

[5] = Aqueous solubility of compound at pH 7.4; format: physicochemical; conditions: aqueous medium
CYP2C9 = CYP2C9 (Homo sapiens, UniProt P11712); test: Inhibition of CYP2C9 in human liver microsomes using diclofenac as substrate after 10 mins by LC-MS/MS analysis; format: ADME; conditions: human, liver microsomes, probe diclofenac
Sequence of CYP2C9 (P11712 whole entry): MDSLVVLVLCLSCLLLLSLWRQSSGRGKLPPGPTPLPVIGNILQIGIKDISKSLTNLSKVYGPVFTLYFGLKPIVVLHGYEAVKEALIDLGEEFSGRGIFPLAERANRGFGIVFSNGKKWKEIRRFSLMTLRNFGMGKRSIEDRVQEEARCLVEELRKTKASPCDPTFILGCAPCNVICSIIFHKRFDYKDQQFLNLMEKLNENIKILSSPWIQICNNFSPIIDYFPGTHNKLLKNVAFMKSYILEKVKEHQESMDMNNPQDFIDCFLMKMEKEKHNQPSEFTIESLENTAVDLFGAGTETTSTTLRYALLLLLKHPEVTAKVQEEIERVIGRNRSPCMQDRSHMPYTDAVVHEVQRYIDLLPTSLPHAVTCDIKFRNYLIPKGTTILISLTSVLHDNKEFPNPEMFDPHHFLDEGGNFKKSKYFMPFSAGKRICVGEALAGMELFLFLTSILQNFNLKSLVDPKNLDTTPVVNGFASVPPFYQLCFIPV

CYP3A4 = CYP3A4 (Homo sapiens, UniProt P08684); test: Inhibition of CYP3A4 in human liver microsomes using midazolam as substrate after 10 mins by LC-MS/MS analysis; format: ADME; conditions: human, liver microsomes, probe midazolam
Sequence of CYP3A4 (P08684 whole entry): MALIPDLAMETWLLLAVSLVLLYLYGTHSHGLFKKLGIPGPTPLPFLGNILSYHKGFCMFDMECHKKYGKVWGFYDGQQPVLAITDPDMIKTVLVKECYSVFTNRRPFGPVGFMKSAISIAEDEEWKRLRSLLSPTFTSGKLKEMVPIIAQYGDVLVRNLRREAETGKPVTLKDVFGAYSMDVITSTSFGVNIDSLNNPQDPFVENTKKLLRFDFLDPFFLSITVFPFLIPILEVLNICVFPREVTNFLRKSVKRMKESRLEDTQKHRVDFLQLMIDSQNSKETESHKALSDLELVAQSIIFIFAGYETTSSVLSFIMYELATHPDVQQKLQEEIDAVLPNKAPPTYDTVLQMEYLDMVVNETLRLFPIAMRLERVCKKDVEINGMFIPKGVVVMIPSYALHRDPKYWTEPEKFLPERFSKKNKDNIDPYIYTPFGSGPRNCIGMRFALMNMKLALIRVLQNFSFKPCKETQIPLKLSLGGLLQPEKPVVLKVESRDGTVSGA

CYP2C19 = CYP2C19 (Homo sapiens, UniProt P33261); test: Inhibition of CYP2C19 in human liver microsomes using (S)-mephenytoin as substrate after 10 mins by LC-MS/MS analysis; format: ADME; conditions: human, liver microsomes, probe (S)-mephenytoin
Sequence of CYP2C19 (P33261 whole entry): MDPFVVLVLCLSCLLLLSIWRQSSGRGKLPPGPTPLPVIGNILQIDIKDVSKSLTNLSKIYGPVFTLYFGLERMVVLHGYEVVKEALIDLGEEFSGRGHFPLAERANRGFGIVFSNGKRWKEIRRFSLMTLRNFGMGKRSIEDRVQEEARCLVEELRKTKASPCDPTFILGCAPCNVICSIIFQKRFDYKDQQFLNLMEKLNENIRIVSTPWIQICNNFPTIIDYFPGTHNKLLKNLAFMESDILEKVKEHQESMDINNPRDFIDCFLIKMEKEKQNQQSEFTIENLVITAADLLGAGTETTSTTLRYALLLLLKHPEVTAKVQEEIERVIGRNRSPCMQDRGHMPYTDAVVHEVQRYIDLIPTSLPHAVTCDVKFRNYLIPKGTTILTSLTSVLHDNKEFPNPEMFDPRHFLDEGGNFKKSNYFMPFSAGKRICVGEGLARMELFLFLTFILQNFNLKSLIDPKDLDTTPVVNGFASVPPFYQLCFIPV

IC50 [1] [nM]	remaining at 0.5 h, 1 µM [2] [%]	remaining at 0.5 h, 1 µM [3] [%]	SMILES	further results
32	–	–	O=C(c1ccccc1)N1CCc2oc(-c3ccc(Cl)cn3)nc2C1	–
50	> 91	> 91	O=C(c1cccc(Cl)c1)N1CCc2oc(-c3ccc(F)cn3)nc2C1	–
157	> 91	> 91	COc1cccc(C(=O)N2CCc3oc(-c4ccc(F)cn4)nc3C2)c1	–
58	> 91	> 91	O=C(c1ccccc1F)N1CCc2oc(-c3ccc(F)cn3)nc2C1	–
–	> 97	> 97	O=C(c1cc(F)cc(Cl)c1)N1CCn2nc(-c3ccc(F)cn3)cc2C1	IC50 at 10 min (CYP1A2): > 40000 nM; Activity [4]: Not Active; IC50 at 10 min (CYP2D6): > 40000 nM; efflux ratio (P-gp): 1.2; IC50 at 10 min (CYP2C8): > 40000 nM; IC50 at 10 min (CYP2A6): > 40000 nM; solubility [5]: 4 µg/mL (≈ 10.7 µM); IC50 at 10 min (CYP2C9): > 40000 nM; IC50 at 10 min (CYP3A4): > 40000 nM; IC50 at 10 min (CYP2C19): > 40000 nM
177	–	–	Cc1ccc(-c2nc3c(o2)CCN(C(=O)c2ccccc2)C3)nc1	–
403	> 97	> 97	N#Cc1cc(F)cc(C(=O)N2CCc3oc(-c4ccc(F)cn4)nc3C2)c1	–
